Measured values: PubChem BioAssay AID328 (DTP/NCI, 2004)
Values joined by “and” are separate entries in the source; they are usually repeats but may differ in a detail not shown here. Equal entries are not always repeated. Inconclusive results and toxic doses are left out. The calls were made as follows: active = survival T/C of 150% or more; inactive = T/C below 125% in these data.

Tested on: BDF1 mice, P388 leukemia ip, median survival T/C
Experiment: NCI In Vivo Anticancer Drug Screen. Data for tumor model P388 Leukemia (intraperitoneal) in B6D2F1 (BDF1) mice
Settings: endpoint: median survival time, higher = longer survival
Outline: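 In tumour-bearing mice, survival after compound treatment is set against the vehicle group and given as a quotient.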

[1] = dose: 50.0 mg/kg/injection, schedule: Q01DX005 (ip), vehicle: saline with Tween-80
[2] = dose: 100.0 mg/kg/injection, schedule: Q01DX005 (ip), vehicle: saline with Tween-80
[3] = dose: 200.0 mg/kg/injection, schedule: Q01DX005 (ip), vehicle: saline with Tween-80
[4] = dose: 15.0 mg/kg/injection, schedule: Q01DX009 (ip), vehicle: saline with Tween-80
[5] = dose: 6.25 mg/kg/injection, schedule: Q01DX009 (ip), vehicle: saline
[6] = dose: 12.5 mg/kg/injection, schedule: Q01DX009 (ip), vehicle: saline with Tween-80
[7] = dose: 100.0 mg/kg/injection, schedule: Q04DX003 (ip), vehicle: saline with Tween-80
[8] = dose: 200.0 mg/kg/injection, schedule: Q04DX003 (ip), vehicle: saline with Tween-80
[9] = dose: 400.0 mg/kg/injection, schedule: Q04DX003 (ip), vehicle: saline with Tween-80
[10] = dose: 100.0 mg/kg/injection, schedule: Q04DX003 (ip), vehicle: Klucel (hydroxypropylcellulose) (HPC)
[11] = dose: 200.0 mg/kg/injection, schedule: Q04DX003 (ip), vehicle: Klucel (hydroxypropylcellulose) (HPC)
[12] = dose: 400.0 mg/kg/injection, schedule: Q04DX003 (ip), vehicle: Klucel (hydroxypropylcellulose) (HPC)
[13] = dose: 12.5 mg/kg/injection, schedule: Q01DX009 (ip), vehicle: saline
[14] = dose: 25.0 mg/kg/injection, schedule: Q01DX009 (ip), vehicle: saline
[15] = dose: 50.0 mg/kg/injection, schedule: Q01DX009 (ip), vehicle: saline
[16] = dose: 100.0 mg/kg/injection, schedule: Q01DX001 (ip), vehicle: saline with Tween-80
[17] = dose: 200.0 mg/kg/injection, schedule: Q01DX001 (ip), vehicle: saline with Tween-80
[18] = dose: 50.0 mg/kg/injection, schedule: Q01DX009 (ip), vehicle: saline with Tween-80
[19] = dose: 100.0 mg/kg/injection, schedule: Q01DX009 (ip), vehicle: saline with Tween-80
[20] = dose: 200.0 mg/kg/injection, schedule: Q01DX009 (ip), vehicle: saline with Tween-80
[21] = dose: 3.12 mg/kg/injection, schedule: Q01DX009 (ip), vehicle: Klucel (hydroxypropylcellulose) (HPC)
[22] = dose: 25.0 mg/kg/injection, schedule: Q01DX009 (ip), vehicle: saline with Tween-80

Measured: T/C

CCCCn1cnc2c(=S)nc[nH]c21
inactive: dose: 15.0 mg/kg/injection, schedule: Q01DX010 (ip), vehicle: water 100 % of control | dose: 16.0 mg/kg/injection, schedule: Q01DX010 (ip), vehicle: saline 100 % of control | dose: 30.0 mg/kg/injection, schedule: Q01DX010 (ip), vehicle: water 90 % of control | dose: 32.0 mg/kg/injection, schedule: Q01DX010 (ip), vehicle: saline 90 % of control and 95 % of control | dose: 64.0 mg/kg/injection, schedule: Q01DX010 (ip), vehicle: saline 104 % of control and 113 % of control | dose: 128.0 mg/kg/injection, schedule: Q01DX010 (ip), vehicle: saline 95 % of control and 104 % of control

CCN(CC)CCOC(=O)c1ccc([N+](=O)[O-])c2ccccc12
inactive: [1] 98 % of control | [2] 88 % of control | [3] 88 % of control

Cc1nn(CCO)c(C)c1N=[N+]([O-])c1c(C)nn(CCO)c1C
inactive: [4] 114 % of control

NNC(=S)SCc1ccccc1
inactive: [4] 106 % of control | dose: 30.0 mg/kg/injection, schedule: Q01DX009 (ip), vehicle: saline with Tween-80 98 % of control

CCC[CH2][Hg][O]C(C)=O
inactive: dose: 3.13 mg/kg/injection, schedule: Q01DX009 (ip), vehicle: saline with Tween-80 115 % of control | dose: 3.13 mg/kg/injection, schedule: Q04DX003 (ip), vehicle: saline sonified 110 % of control | dose: 4.16 mg/kg/injection, schedule: Q01DX009 (ip), vehicle: saline 114 % of control | [5] 114 % of control | dose: 6.25 mg/kg/injection, schedule: Q04DX003 (ip), vehicle: saline sonified 120 % of control | dose: 8.25 mg/kg/injection, schedule: Q04DX003 (ip), vehicle: saline sonified 109 % of control | [6] 100 % of control | dose: 12.5 mg/kg/injection, schedule: Q04DX003 (ip), vehicle: saline sonified 118 % of control

COC(OC)c1[nH]c(=S)[nH]c(=O)c1Cc1ccccc1
inactive: [7] 104 % of control | [8] 112 % of control | [9] 112 % of control

Nc1nc([Se])c2ncn(C3OC(CO)C(O)C3O)c2n1 (stereo unspecified)
inactive: dose: 32.0 mg/kg/injection, schedule: Q01DX009 (ip), vehicle: saline 100 % of control

CN(C)c1ccc(C(/C=N\O)(c2ccc(N(C)C)cc2)c2ccc(N(C)C)cc2)cc1
inactive: [10] 104 % of control | [11] 100 % of control | [12] 109 % of control

C1=NOC2c3ccc4ccccc4c3CCC12 (stereo unspecified)
inactive: [11] 87 % of control | [12] 95 % of control

COC(=O)C1(C)CCc2c(ccc3ccccc23)C1=O (stereo unspecified)
inactive: dose: 100.0 mg/kg/injection, schedule: Q01DX001 (ip), vehicle: other 100 % of control | dose: 200.0 mg/kg/injection, schedule: Q01DX001 (ip), vehicle: other 95 % of control | dose: 400.0 mg/kg/injection, schedule: Q01DX001 (ip), vehicle: other 113 % of control

Oc1cccnc1CN1CCCCC1
inactive: [5] 103 % of control | [13] 111 % of control | [14] 107 % of control | [15] 88 % of control

CC(=O)NC(N)=O
inactive: [16] 100 % of control | [17] 100 % of control | dose: 400.0 mg/kg/injection, schedule: Q01DX001 (ip), vehicle: saline with Tween-80 109 % of control

CN(C)Cc1ccc(-c2cc3onc(-c4ccccc4)c3c(=O)n2C)cc1
inactive: [1] 108 % of control | [2] 94 % of control | [3] 97 % of control

CC(=O)N(C)N(Cc1ccc(C#N)cc1)C(C)=O
inactive: dose: 25.0 mg/kg/injection, schedule: Q04DX003 (ip), vehicle: Klucel (hydroxypropylcellulose) (HPC) 94 % of control | dose: 50.0 mg/kg/injection, schedule: Q04DX003 (ip), vehicle: Klucel (hydroxypropylcellulose) (HPC) 100 % of control | [10] 99 % of control | [11] 100 % of control | [12] 111 % of control

CC(=N\O)/C(C)=N/O.CC(=N\O)/C(C)=N/O.[Cl][Co][Cl]
inactive: [5] 90 % of control and 99 % of control | [13] 100 % of control | [14] 99 % of control | [15] 94 % of control and 110 % of control | dose: 100.0 mg/kg/injection, schedule: Q01DX009 (ip), vehicle: saline 91 % of control and 110 % of control | dose: 200.0 mg/kg/injection, schedule: Q01DX009 (ip), vehicle: saline 100 % of control

Nc1nc(N)c2c(n1)CCC(S(=O)(=O)c1ccc3ccccc3c1)C2 (stereo unspecified)
inactive: [18] 103 % of control and 114 % of control | [19] 122 % of control and 124 % of control | [20] 123 % of control

COc1ccc(CNCC(OC)OC)cc1O
inactive: [16] 99 % of control | [17] 102 % of control

O=[N+]([O-])c1cccc(C=Nc2cccc(C(F)(F)F)c2)c1
inactive: dose: 3.0 mg/kg/injection, schedule: Q01DX009 (ip), vehicle: Klucel (hydroxypropylcellulose) (HPC) 95 % of control | dose: 6.0 mg/kg/injection, schedule: Q01DX009 (ip), vehicle: Klucel (hydroxypropylcellulose) (HPC) 95 % of control | dose: 12.0 mg/kg/injection, schedule: Q01DX009 (ip), vehicle: Klucel (hydroxypropylcellulose) (HPC) 100 % of control | [10] 104 % of control | [11] 95 % of control | [12] 95 % of control

ClC(Cl)(Cl)C(N1CCN(c2ccccc2)CC1)N1CCN(c2ccccc2)CC1
inactive: [18] 104 % of control | [19] 100 % of control | [20] 95 % of control

O=C1C=Cc2cccc3cccc1c23
inactive: dose: 50.0 mg/kg/injection, schedule: Q04DX003 (ip), vehicle: saline sonified 95 % of control | dose: 100.0 mg/kg/injection, schedule: Q04DX003 (ip), vehicle: saline sonified 95 % of control | dose: 200.0 mg/kg/injection, schedule: Q04DX003 (ip), vehicle: saline sonified 91 % of control

O=C(CBr)c1ccc(F)cc1
inactive: dose: 0.78 mg/kg/injection, schedule: Q01DX009 (ip), vehicle: Klucel (hydroxypropylcellulose) (HPC) 110 % of control | dose: 1.56 mg/kg/injection, schedule: Q01DX009 (ip), vehicle: Klucel (hydroxypropylcellulose) (HPC) 110 % of control | [21] 112 % of control | dose: 6.25 mg/kg/injection, schedule: Q01DX009 (ip), vehicle: Klucel (hydroxypropylcellulose) (HPC) 118 % of control

CN(C)N=Nc1ccc(-c2ccccc2)cc1
inactive: [22] 99 % of control

COc1ccc(CNc2cc(C(O)CNC(C)(C)C)ccc2O)cc1 (stereo unspecified)
inactive: dose: 6.25 mg/kg/injection, schedule: Q01DX009 (ip), vehicle: saline with Tween-80 105 % of control | [6] 102 % of control | [22] 114 % of control

CC(=O)OC1CC2(O)C(CCC3(C)C(c4ccc(=O)oc4)CCC32O)C2(C)CCC(OC3OC(CO)C(O)C(O)C3O)C=C12 (stereo unspecified)
inactive: dose: 125.0 micrograms/kg/injection, schedule: Q01DX010 (ip), vehicle: saline 90 % of control

c1cc[c]([Pb]([c]2ccccc2)([c]2ccccc2)[n]2ccc3ccccc32)cc1
inactive: dose: 0.78 mg/kg/injection, schedule: Q01DX009 (ip), vehicle: saline 100 % of control | dose: 1.05 mg/kg/injection, schedule: Q01DX009 (ip), vehicle: Klucel (hydroxypropylcellulose) (HPC) 103 % of control | dose: 1.05 mg/kg/injection, schedule: Q01DX009 (ip), vehicle: other 108 % of control | dose: 2.05 mg/kg/injection, schedule: Q01DX009 (ip), vehicle: saline 115 % of control | dose: 2.08 mg/kg/injection, schedule: Q01DX009 (ip), vehicle: Klucel (hydroxypropylcellulose) (HPC) 94 % of control | dose: 2.08 mg/kg/injection, schedule: Q01DX009 (ip), vehicle: other 108 % of control and 109 % of control | [21] 108 % of control | dose: 3.12 mg/kg/injection, schedule: Q01DX009 (ip), vehicle: other 100 % of control | dose: 4.68 mg/kg/injection, schedule: Q01DX009 (ip), vehicle: Klucel (hydroxypropylcellulose) (HPC) 109 % of control

Oc1ccc2ccccc2c1/C=N\Sc1ccc(Cl)cc1
inactive: [6] 90 % of control | [22] 96 % of control | [18] 106 % of control

O=C1CCCCC1Oc1ccccc1 (stereo unspecified)
inactive: [19] 95 % of control | [7] 95 % of control | [20] 91 % of control | [8] 100 % of control | [9] 100 % of control
